*1 amine or outer side, *2 acyl side, *3 side chain or, on linkers, in order; H or OH if unused. Where a SMILES comes first, the peptide text is derived from it. Side-chain parts run from the residue outwards. [ ]: non-standard residue; d: D form. The star is where a group is joined. γGlu = O=C(O)[C@H](CCC(=O)[*:2])N[*:1]; Palmitoyl = CCCCCCCCCCCCCCCC(=O)*; Aib = CC(C)(N)C(=O)O
How the values were obtained:
physchem = format: physicochemical
Description: Prior to the testing of solubility and stability of a peptide batch, its content was determined. Therefore, two parameters were investigated, its purity (HPLC-UV) and the amount of salt load of the batch (ion chromatography). Since synthesized peptides contain primarily trifluoracetate anions, only anion chromatography was performed. The content was then calculated based on the assumption that peptide-related impurities are detected at the same UV-absorption rate as the target peptide, as well as that cations are not present in the sample.
Therefore, solutions from solid samples were prepared in different buffer systems with a concentration of 1.0 mg/mL compound based on the previously determined content. HPLC-UV was performed after 2 h of gentle agitation from the supernatant, which was obtained by 20 min of centrifugation at 4000 rpm. […] This analysis also served as t0 for the stability testing.
Instrument: Agilent 1100, column: X-Bridge C18 3.5 μm 2.1×150 mm (Waters), eluent: A: H20+500 ppm TFA/B: Methanol, flow: 0.55 ml/min, gradient: 0-5 min: 10-60% B; 5-15 min: 60-99% B; detection: 214 nm.

[1] = molecular target: T1, human GLP-1 receptor (hGLP-1 R) (Homo sapiens, UniProt P43220); assay: cAMP response (HTRF) of HEK-293 cells stably expressing human GLP-1 receptor; format: cell-based; conditions: HEK-293 cells expressing human GLP-1 receptor, cAMP formation
T1 construct: expressed in transfected cells; host or cells: HEK-293
Procedure, shortened: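 Detached HEK-293 cells stably expressing the receptor were suspended in HBSS with 20 mM HEPES, 0.1% BSA and 2 mM IBMX. Test compound was added for 30 min at room temperature, and cellular cAMP was quantified by HTRF.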

T1 sequence (P43220 24-463): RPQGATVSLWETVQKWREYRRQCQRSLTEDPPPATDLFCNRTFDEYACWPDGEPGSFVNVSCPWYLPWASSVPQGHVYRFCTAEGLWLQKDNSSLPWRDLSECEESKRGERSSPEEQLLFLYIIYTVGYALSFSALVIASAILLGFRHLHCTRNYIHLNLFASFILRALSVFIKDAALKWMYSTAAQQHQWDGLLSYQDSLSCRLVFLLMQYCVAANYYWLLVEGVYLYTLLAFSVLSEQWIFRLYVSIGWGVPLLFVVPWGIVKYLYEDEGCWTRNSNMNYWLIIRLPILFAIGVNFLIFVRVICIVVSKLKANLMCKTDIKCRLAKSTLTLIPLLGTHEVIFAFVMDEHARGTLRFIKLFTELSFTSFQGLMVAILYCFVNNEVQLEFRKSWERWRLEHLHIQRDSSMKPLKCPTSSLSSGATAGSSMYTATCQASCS

Compound	solubility at 2 h (physchem; pH 4.5) [µg/mL]	solubility at 2 h (physchem; pH 7.4) [µg/mL]	EC50 [1] [pM]
CCCCCCCCCCCCCCCC(=O)N[C@@H](CCC(=O)NCCCC[C@H](NC(=O)[C@H](CO)NC(=O)[C@@H]1CCCN1C(=O)[C@@H]1CCCN1C(=O)[C@@H]1CCCN1C(=O)[C@H](C)NC(=O)CNC(=O)[C@H](CO)NC(=O)[C@H](CO)NC(=O)[C@@H]1CCCN1C(=O)CNC(=O)CNC(=O)[C@H](C)NC(=O)[C@H](CCCCN)NC(=O)[C@H](CC(C)C)NC(=O)[C@H](Cc1c[nH]c2ccccc12)NC(=O)[C@H](CCC(=O)O)NC(=O)[C@@H](NC(=O)[C@H](Cc1ccccc1)NC(=O)[C@H](CC(=O)O)NC(=O)[C@H](CCC(N)=O)NC(=O)[C@H](C)NC(=O)[C@H](CCCNC(=N)N)NC(=O)[C@H](CCCNC(=N)N)NC(=O)[C@H](CO)NC(=O)[C@H](CC(=O)O)NC(=O)[C@H](CCSC)NC(=O)[C@H](CCC(N)=O)NC(=O)[C@H](CCCCN)NC(=O)[C@H](CO)NC(=O)[C@H](CC(C)C)NC(=O)[C@H](CC(=O)O)NC(=O)[C@H](CO)NC(=O)[C@@H](NC(=O)[C@H](Cc1ccccc1)NC(=O)[C@@H](NC(=O)CNC(=O)[C@H](CCC(N)=O)NC(=O)[C@@H](CO)NC(=O)[C@@H](N)Cc1c[nH]cn1)[C@@H](C)O)[C@@H](C)O)[C@@H](C)CC)C(N)=O)C(=O)O [(60)] (H-H[dS]QGTFTSDLSKQMDSRRAQDFIEWLKAGGPSSGAPPPSK([γGlu-Palmitoyl])-NH2)	> 1000	> 1000	–
CCCCCCCCCCCCCCCC(=O)N[C@@H](CCC(=O)NCCCC[C@H](NC(=O)[C@@H]1CCCN1C(=O)[C@@H]1CCCN1C(=O)[C@@H]1CCCN1C(=O)[C@H](C)NC(=O)CNC(=O)[C@H](CO)NC(=O)[C@H](CO)NC(=O)[C@@H]1CCCN1C(=O)CNC(=O)CNC(=O)C(C)(C)NC(=O)[C@H](CCCCN)NC(=O)[C@H](CC(C)C)NC(=O)[C@H](Cc1c[nH]c2ccccc12)NC(=O)[C@H](CCC(=O)O)NC(=O)[C@@H](NC(=O)[C@H](Cc1ccccc1)NC(=O)[C@H](CC(=O)O)NC(=O)[C@H](CCC(N)=O)NC(=O)[C@H](C)NC(=O)[C@H](CCCNC(=N)N)NC(=O)[C@H](CCCNC(=N)N)NC(=O)[C@H](CO)NC(=O)[C@H](CCC(=O)O)NC(=O)[C@H](CCSC)NC(=O)[C@H](CCC(N)=O)NC(=O)[C@H](CCCCN)NC(=O)[C@H](CO)NC(=O)[C@H](CC(C)C)NC(=O)[C@H](CC(=O)O)NC(=O)[C@H](CO)NC(=O)[C@@H](NC(=O)[C@H](Cc1ccccc1)NC(=O)[C@@H](NC(=O)CNC(=O)[C@H](CCC(N)=O)NC(=O)[C@@H](CO)NC(=O)[C@@H](N)Cc1c[nH]cn1)[C@@H](C)O)[C@@H](C)O)[C@@H](C)CC)C(N)=O)C(=O)O [(80)] (H-H[dS]QGTFTSDLSKQMESRRAQDFIEWLK[Aib]GGPSSGAPPPK([γGlu-Palmitoyl])-NH2)	–	–	10.8
CC[C@H](C)[C@H](NC(=O)[C@H](Cc1ccccc1)NC(=O)[C@H](CC(=O)O)NC(=O)[C@H](CCCCN)NC(=O)[C@H](C)NC(=O)[C@H](CCCNC(=N)N)NC(=O)[C@H](CCCNC(=N)N)NC(=O)[C@H](CCC(=O)O)NC(=O)[C@H](CCC(=O)O)NC(=O)[C@H](CCSC)NC(=O)[C@H](CCC(N)=O)NC(=O)[C@H](CCCCN)NC(=O)[C@H](CO)NC(=O)[C@H](CC(C)C)NC(=O)[C@H](CC(=O)O)NC(=O)[C@H](CO)NC(=O)[C@@H](NC(=O)[C@H](Cc1ccccc1)NC(=O)[C@@H](NC(=O)CNC(=O)[C@H](CCC(N)=O)NC(=O)[C@H](CO)NC(=O)[C@@H](N)Cc1c[nH]cn1)[C@@H](C)O)[C@@H](C)O)C(=O)N[C@@H](CCC(=O)O)C(=O)N[C@@H](Cc1c[nH]c2ccccc12)C(=O)N[C@@H](CC(C)C)C(=O)N[C@@H](CCCCN)C(=O)N[C@@H](CC(N)=O)C(=O)NCC(=O)NCC(=O)N1CCC[C@H]1C(=O)N[C@@H](CO)C(=O)N[C@@H](CO)C(=O)NCC(=O)N[C@@H](C)C(=O)N1CCC[C@H]1C(=O)N1CCC[C@H]1C(=O)N1CCC[C@H]1C(=O)N[C@@H](CO)C(N)=O [(16)] (H-HSQGTFTSDLSKQMEERRAKDFIEWLKNGGPSSGAPPPS-NH2)	–	–	7.6
CCCCCCCCCCCCCCCC(=O)NCCCC[C@H](NC(=O)[C@H](CO)NC(=O)[C@@H]1CCCN1C(=O)[C@@H]1CCCN1C(=O)[C@@H]1CCCN1C(=O)[C@H](C)NC(=O)CNC(=O)[C@H](CO)NC(=O)[C@H](CO)NC(=O)[C@@H]1CCCN1C(=O)CNC(=O)CNC(=O)[C@H](CC(N)=O)NC(=O)[C@H](CCCCN)NC(=O)[C@H](CC(C)C)NC(=O)[C@H](Cc1c[nH]c2ccccc12)NC(=O)[C@H](CCC(=O)O)NC(=O)[C@@H](NC(=O)[C@H](Cc1ccccc1)NC(=O)[C@H](CC(=O)O)NC(=O)[C@H](CCC(N)=O)NC(=O)[C@H](C)NC(=O)[C@H](CCCNC(=N)N)NC(=O)[C@H](CCCNC(=N)N)NC(=O)[C@H](CO)NC(=O)[C@H](CC(=O)O)NC(=O)[C@H](CCSC)NC(=O)[C@H](CCC(N)=O)NC(=O)[C@H](CCCCN)NC(=O)[C@H](CO)NC(=O)[C@H](CC(C)C)NC(=O)[C@H](CC(=O)O)NC(=O)[C@H](CO)NC(=O)[C@@H](NC(=O)[C@H](Cc1ccccc1)NC(=O)[C@@H](NC(=O)CNC(=O)[C@H](CCC(N)=O)NC(=O)[C@@H](CO)NC(=O)[C@@H](N)Cc1c[nH]cn1)[C@@H](C)O)[C@@H](C)O)[C@@H](C)CC)C(N)=O [(26)]	–	–	9.7
CCCCCCCCCCCCCCCC(=O)N[C@@H](CCC(=O)NCCCC[C@H](NC(=O)[C@@H]1CCCN1C(=O)[C@@H]1CCCN1C(=O)[C@@H]1CCCN1C(=O)[C@H](C)NC(=O)CNC(=O)[C@H](CO)NC(=O)[C@H](CO)NC(=O)[C@@H]1CCCN1C(=O)CNC(=O)CNC(=O)[C@H](CC(N)=O)NC(=O)[C@H](CCCCN)NC(=O)[C@H](CC(C)C)NC(=O)[C@H](Cc1c[nH]c2ccccc12)NC(=O)[C@H](CCC(=O)O)NC(=O)[C@@H](NC(=O)[C@H](Cc1ccccc1)NC(=O)[C@H](CC(=O)O)NC(=O)[C@H](CCC(N)=O)NC(=O)[C@H](C)NC(=O)[C@H](CCCNC(=N)N)NC(=O)[C@H](CCCNC(=N)N)NC(=O)[C@H](CO)NC(=O)[C@H](CC(=O)O)NC(=O)[C@H](CCSC)NC(=O)[C@H](CCC(N)=O)NC(=O)[C@H](CCCCN)NC(=O)[C@H](CO)NC(=O)[C@H](CC(C)C)NC(=O)[C@H](CC(=O)O)NC(=O)[C@H](CO)NC(=O)[C@@H](NC(=O)[C@H](Cc1ccccc1)NC(=O)[C@@H](NC(=O)CNC(=O)[C@H](CCC(N)=O)NC(=O)[C@@H](CO)NC(=O)[C@@H](N)Cc1c[nH]cn1)[C@@H](C)O)[C@@H](C)O)[C@@H](C)CC)C(N)=O)C(=O)O [(51)]	–	–	5.8
CCCCCCCCCCCCCCCC(=O)N[C@@H](CCC(=O)NCCCC[C@H](NC(=O)[C@H](CO)NC(=O)[C@@H]1CCCN1C(=O)[C@@H]1CCCN1C(=O)[C@@H]1CCCN1C(=O)[C@H](C)NC(=O)CNC(=O)[C@H](CO)NC(=O)[C@H](CO)NC(=O)[C@@H]1CCCN1C(=O)CNC(=O)CNC(=O)[C@H](C)NC(=O)[C@H](CCCCN)NC(=O)[C@H](CC(C)C)NC(=O)[C@H](Cc1c[nH]c2ccccc12)NC(=O)[C@H](CCC(=O)O)NC(=O)[C@@H](NC(=O)[C@H](Cc1ccccc1)NC(=O)[C@H](CC(C)C)NC(=O)[C@H](CCC(N)=O)NC(=O)[C@H](C)NC(=O)[C@H](C)NC(=O)C(C)(C)NC(=O)[C@H](CO)NC(=O)[C@H](CCC(=O)O)NC(=O)[C@H](CCSC)NC(=O)[C@H](CCC(N)=O)NC(=O)[C@H](CCCCN)NC(=O)[C@H](CO)NC(=O)[C@H](CC(C)C)NC(=O)[C@H](CC(=O)O)NC(=O)[C@H](CO)NC(=O)[C@@H](NC(=O)[C@H](Cc1ccccc1)NC(=O)[C@@H](NC(=O)CNC(=O)[C@H](CCC(N)=O)NC(=O)[C@@H](CO)NC(=O)[C@@H](N)Cc1c[nH]cn1)[C@@H](C)O)[C@@H](C)O)[C@@H](C)CC)C(N)=O)C(=O)O [(112)] (H-H[dS]QGTFTSDLSKQMES[Aib]AAQLFIEWLKAGGPSSGAPPPSK([γGlu-Palmitoyl])-NH2)	–	–	9.7
CCCCCCCCCCCCCCCC(=O)N[C@@H](CCC(=O)NCCCC[C@H](NC(=O)[C@@H]1CCCN1C(=O)[C@@H]1CCCN1C(=O)[C@@H]1CCCN1C(=O)[C@H](C)NC(=O)CNC(=O)[C@H](CO)NC(=O)[C@H](CO)NC(=O)[C@@H]1CCCN1C(=O)CNC(=O)CNC(=O)[C@H](CC(N)=O)NC(=O)[C@H](CCCCN)NC(=O)[C@H](CC(C)C)NC(=O)[C@H](Cc1c[nH]c2ccccc12)NC(=O)[C@H](CCC(=O)O)NC(=O)[C@@H](NC(=O)[C@H](Cc1ccccc1)NC(=O)[C@H](CC(=O)O)NC(=O)[C@H](CCC(N)=O)NC(=O)[C@H](C)NC(=O)[C@H](CCCNC(=N)N)NC(=O)[C@H](CCCNC(=N)N)NC(=O)[C@H](CO)NC(=O)[C@H](CC(=O)O)NC(=O)[C@H](CCSC)NC(=O)[C@H](CCC(N)=O)NC(=O)[C@H](CCCCN)NC(=O)[C@H](CO)NC(=O)[C@H](CC(C)C)NC(=O)[C@H](CC(=O)O)NC(=O)[C@H](CO)NC(=O)[C@@H](NC(=O)[C@H](Cc1ccccc1)NC(=O)[C@@H](NC(=O)CNC(=O)[C@H](CCC(N)=O)NC(=O)C(C)(C)NC(=O)[C@@H](N)Cc1c[nH]cn1)[C@@H](C)O)[C@@H](C)O)[C@@H](C)CC)C(N)=O)C(=O)O [(52)] (H-H[Aib]QGTFTSDLSKQMDSRRAQDFIEWLKNGGPSSGAPPPK([γGlu-Palmitoyl])-NH2)	–	–	4.1
